Experimental data from the kinase profiling compilation of Christmann-Franck et al. (2016).

How the values were obtained:
Assay in all cases: radiometric filter-binding kinase assay
NEK2 (human) = NEK2 (human) (UniProt P51955)
GCK (human) = GCK (human) (UniProt Q12851)
MAPKAPK5 (human) = MAPKAPK5 (human) (UniProt Q8IW41)
IKBKE (human) = IKBKE (human) (UniProt Q14164)
FLT1 (human) = FLT1 (human) (UniProt P17948)
MAPKAPK2 (human) = MAPKAPK2 (human) (UniProt P49137)
ROCK2 (rat) = settings: accession and sequence are those of the human protein
DYRK2 (human) = DYRK2 (human) (UniProt Q92630)
MAPK12 (human) = MAPK12 (human) (UniProt P53778)
HIPK2 (human) = HIPK2 (human) (UniProt Q9H2X6); settings: compound 10.0 µM
EPHB1 (human) = EPHB1 (human) (UniProt P54762)
IRAK4 (human) = IRAK4 (human) (UniProt Q9NWZ3)
TTK (human) = TTK (human) (UniProt P33981)
TTK (human), sequence (P33981 whole entry, looked up): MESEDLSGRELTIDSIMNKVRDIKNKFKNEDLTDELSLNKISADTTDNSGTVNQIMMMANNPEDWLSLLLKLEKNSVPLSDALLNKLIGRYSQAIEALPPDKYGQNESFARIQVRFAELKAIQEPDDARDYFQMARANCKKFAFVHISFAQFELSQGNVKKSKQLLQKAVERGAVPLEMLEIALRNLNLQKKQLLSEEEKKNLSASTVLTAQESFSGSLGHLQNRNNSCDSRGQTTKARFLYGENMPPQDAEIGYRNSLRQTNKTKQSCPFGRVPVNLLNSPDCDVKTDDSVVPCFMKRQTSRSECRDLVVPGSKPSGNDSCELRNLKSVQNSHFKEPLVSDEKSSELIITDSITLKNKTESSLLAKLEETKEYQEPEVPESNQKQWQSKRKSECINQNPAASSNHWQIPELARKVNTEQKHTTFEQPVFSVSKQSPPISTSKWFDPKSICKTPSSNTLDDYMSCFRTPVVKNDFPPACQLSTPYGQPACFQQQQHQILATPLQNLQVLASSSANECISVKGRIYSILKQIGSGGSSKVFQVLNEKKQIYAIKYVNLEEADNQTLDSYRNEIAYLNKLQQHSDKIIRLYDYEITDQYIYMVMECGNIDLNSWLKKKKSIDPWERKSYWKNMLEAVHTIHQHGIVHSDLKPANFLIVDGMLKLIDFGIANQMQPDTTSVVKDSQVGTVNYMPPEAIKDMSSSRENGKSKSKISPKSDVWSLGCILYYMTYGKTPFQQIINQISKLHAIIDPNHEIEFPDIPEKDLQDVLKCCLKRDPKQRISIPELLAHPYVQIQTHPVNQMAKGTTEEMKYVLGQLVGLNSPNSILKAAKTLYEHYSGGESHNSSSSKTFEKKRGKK

PIM3 (human) = PIM3 (human) (UniProt Q86V86)
RPS6KA1 KD1 KD2 (human) = RPS6KA1 KD1 KD2 (human) (UniProt Q15418)
MYLK (human) = MYLK (human) (UniProt Q15746)
EPHB4 (human) = EPHB4 (human) (UniProt P54760)
MAP3K7 TAB1 (human) = MAP3K7 TAB1 (human) (UniProt Q15750+O43318)
PIM1 (human) = PIM1 (human) (UniProt P11309)
[1] = tested on: RPS6KB1 (human), P23443 [T412E]
DAPK1 (human) = DAPK1 (human) (UniProt P53355)
EPHA2 (human) = EPHA2 (human) (UniProt P29317)
EPHA2 (human), sequence (P29317 whole entry, looked up): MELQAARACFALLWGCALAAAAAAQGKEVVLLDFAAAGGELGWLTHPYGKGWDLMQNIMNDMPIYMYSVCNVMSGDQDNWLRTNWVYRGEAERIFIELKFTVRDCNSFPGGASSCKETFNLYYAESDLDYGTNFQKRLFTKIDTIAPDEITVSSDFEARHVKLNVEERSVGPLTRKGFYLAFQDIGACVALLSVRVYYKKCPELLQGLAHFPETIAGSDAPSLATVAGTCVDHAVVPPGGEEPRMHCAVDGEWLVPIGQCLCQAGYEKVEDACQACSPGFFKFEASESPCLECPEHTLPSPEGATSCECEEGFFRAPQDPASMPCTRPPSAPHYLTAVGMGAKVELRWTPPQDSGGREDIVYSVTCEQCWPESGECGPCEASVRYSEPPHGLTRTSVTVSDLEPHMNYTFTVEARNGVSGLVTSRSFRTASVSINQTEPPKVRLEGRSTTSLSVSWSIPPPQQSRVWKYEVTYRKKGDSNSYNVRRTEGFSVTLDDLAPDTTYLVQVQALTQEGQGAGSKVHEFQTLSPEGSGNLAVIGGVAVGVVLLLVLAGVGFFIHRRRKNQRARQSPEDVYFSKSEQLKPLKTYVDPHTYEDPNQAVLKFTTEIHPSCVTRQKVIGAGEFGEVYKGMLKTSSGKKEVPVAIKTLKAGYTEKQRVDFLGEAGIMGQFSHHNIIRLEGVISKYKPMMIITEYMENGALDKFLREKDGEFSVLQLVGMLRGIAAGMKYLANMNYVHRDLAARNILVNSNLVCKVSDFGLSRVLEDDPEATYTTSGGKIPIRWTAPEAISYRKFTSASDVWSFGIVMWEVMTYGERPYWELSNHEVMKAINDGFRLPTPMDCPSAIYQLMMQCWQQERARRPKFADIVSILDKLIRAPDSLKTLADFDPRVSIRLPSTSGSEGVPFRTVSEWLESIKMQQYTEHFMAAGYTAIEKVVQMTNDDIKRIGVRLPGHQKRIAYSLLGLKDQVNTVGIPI

CHEK2 (human) = CHEK2 (human) (UniProt O96017)
DYRK3 (human) = DYRK3 (human) (UniProt O43781)
MARK1 (human) = MARK1 (human) (UniProt Q9P0L2)
MARK1 (human), sequence (Q9P0L2 whole entry, looked up): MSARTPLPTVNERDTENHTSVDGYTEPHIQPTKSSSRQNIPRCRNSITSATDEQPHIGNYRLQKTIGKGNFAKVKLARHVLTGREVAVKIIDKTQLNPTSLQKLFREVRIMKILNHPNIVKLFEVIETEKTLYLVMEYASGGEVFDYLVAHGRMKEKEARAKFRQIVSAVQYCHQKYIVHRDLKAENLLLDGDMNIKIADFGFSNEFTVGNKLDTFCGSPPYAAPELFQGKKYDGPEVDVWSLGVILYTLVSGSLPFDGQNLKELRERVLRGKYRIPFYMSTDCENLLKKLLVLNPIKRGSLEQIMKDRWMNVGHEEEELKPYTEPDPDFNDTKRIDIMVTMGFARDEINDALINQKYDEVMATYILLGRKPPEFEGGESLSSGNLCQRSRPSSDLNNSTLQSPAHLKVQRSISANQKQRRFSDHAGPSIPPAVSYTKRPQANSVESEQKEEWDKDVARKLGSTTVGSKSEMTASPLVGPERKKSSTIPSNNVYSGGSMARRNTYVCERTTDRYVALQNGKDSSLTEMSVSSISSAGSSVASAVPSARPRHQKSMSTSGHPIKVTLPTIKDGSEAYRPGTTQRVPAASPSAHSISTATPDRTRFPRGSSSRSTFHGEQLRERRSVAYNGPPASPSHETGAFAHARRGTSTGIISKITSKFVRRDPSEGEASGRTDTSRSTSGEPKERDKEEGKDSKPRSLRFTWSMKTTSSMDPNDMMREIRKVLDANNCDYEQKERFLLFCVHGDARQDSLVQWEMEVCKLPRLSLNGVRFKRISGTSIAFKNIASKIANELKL

MARK2 (human) = MARK2 (human) (UniProt Q7KZI7)
PKN2 (human) = PKN2 (human) (UniProt Q16513)
[2] = tested on: SGK1 (human), O00141 [S422D]
SGK1 (human), O00141 [S422D], sequence (O00141 whole entry S422D, looked up): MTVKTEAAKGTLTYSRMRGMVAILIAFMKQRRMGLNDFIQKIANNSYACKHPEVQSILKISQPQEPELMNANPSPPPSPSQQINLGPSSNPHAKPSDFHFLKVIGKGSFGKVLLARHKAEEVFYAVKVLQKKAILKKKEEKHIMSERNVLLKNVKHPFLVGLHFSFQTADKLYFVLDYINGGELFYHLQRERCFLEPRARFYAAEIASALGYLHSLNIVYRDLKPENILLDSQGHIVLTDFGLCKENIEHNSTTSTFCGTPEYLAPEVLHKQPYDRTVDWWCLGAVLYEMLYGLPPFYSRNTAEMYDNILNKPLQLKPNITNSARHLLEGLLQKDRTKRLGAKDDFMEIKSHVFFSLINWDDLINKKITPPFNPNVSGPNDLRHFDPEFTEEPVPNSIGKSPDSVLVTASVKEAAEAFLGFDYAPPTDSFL

STK3 (human) = STK3 (human) (UniProt Q13188)
STK3 (human), sequence (Q13188 whole entry, looked up): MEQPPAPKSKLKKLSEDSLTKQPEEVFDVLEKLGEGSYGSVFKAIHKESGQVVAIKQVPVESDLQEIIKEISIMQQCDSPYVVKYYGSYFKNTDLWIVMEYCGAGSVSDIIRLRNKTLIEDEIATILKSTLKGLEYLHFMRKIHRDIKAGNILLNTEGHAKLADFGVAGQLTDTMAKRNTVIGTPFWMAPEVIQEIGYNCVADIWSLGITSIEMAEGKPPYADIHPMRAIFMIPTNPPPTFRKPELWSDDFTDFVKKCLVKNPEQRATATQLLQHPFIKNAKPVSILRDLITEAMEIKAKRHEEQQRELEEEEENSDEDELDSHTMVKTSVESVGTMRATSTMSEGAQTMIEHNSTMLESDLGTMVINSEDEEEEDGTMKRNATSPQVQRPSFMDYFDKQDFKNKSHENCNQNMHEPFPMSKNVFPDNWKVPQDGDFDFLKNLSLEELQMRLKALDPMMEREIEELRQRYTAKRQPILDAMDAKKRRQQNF

EPHB2 (human) = EPHB2 (human) (UniProt P29323)
EPHB2 (human), sequence (P29323 whole entry, looked up): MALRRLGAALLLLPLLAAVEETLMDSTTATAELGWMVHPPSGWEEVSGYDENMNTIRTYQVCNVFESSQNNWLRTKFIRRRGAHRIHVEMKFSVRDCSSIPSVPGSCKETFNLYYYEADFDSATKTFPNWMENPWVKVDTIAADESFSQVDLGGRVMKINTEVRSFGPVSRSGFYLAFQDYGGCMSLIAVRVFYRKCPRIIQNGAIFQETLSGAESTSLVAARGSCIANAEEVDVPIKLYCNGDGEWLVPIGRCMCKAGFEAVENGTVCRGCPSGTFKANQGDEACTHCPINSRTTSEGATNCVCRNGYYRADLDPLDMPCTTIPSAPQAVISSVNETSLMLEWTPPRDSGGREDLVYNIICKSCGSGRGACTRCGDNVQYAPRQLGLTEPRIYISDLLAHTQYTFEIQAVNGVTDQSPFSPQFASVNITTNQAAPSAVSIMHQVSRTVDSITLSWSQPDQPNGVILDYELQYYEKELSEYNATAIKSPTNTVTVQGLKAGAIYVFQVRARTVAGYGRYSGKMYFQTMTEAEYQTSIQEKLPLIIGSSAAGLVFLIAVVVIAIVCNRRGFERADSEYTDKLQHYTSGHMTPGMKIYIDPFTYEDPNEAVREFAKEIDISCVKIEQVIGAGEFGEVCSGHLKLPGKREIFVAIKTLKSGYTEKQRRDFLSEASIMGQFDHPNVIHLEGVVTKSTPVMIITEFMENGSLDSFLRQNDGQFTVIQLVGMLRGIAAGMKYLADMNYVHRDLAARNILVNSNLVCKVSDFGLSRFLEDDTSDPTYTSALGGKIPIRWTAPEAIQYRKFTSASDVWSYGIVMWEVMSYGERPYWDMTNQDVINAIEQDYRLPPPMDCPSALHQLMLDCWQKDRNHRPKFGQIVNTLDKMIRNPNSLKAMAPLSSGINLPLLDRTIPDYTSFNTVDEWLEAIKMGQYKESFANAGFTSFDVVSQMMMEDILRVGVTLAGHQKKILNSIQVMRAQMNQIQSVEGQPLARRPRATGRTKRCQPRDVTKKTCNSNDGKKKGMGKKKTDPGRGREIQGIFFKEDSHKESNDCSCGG

TAOK1 (human) = TAOK1 (human) (UniProt Q7L7X3)
PRKCA (human) = PRKCA (human) (UniProt P17252)
MAPK14 (human) = MAPK14 (human) (UniProt Q16539)
MELK (human) = MELK (human) (UniProt Q14680)

MAPKAPK2 (human), sequence (P49137 whole entry, looked up): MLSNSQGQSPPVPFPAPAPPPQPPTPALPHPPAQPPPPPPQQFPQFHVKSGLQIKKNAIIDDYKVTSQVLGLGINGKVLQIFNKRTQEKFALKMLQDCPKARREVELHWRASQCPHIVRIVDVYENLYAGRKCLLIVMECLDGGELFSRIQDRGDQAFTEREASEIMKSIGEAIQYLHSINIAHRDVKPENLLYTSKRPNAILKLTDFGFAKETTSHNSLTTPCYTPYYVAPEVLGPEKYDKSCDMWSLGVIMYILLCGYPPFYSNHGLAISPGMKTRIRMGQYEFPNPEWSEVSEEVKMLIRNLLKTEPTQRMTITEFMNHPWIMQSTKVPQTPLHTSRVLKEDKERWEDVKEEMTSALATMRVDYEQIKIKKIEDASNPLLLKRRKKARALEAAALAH

- residual activity (NEK2 (human); compound 0.1 µM): 93%
- residual activity (NEK2 (human); compound 1.0 µM): 107%
- residual activity (NEK2 (human); compound 10.0 µM): 35%
- residual activity (GCK (human); compound 0.1 µM): 98%
- residual activity (GCK (human); compound 1.0 µM): 77%
- residual activity (GCK (human); compound 10.0 µM): 38%
- residual activity (MAPKAPK5 (human); compound 0.1 µM): 101%
- residual activity (MAPKAPK5 (human); compound 1.0 µM): 107%
- residual activity (MAPKAPK5 (human); compound 10.0 µM): 83%
- residual activity (IKBKE (human); compound 0.1 µM): 100%
- residual activity (IKBKE (human); compound 1.0 µM): 95%
- residual activity (IKBKE (human); compound 10.0 µM): 66%
- residual activity (FLT1 (human); compound 0.1 µM): 40%
- residual activity (FLT1 (human); compound 1.0 µM): 7%
- residual activity (FLT1 (human); compound 10.0 µM): 2%
- residual activity (MAPKAPK2 (human); compound 0.1 µM): 88%
- residual activity (MAPKAPK2 (human); compound 1.0 µM): 95%
- residual activity (MAPKAPK2 (human); compound 10.0 µM): 90%
- residual activity (ROCK2 (rat); compound 0.1 µM): 93%
- residual activity (ROCK2 (rat); compound 1.0 µM): 111%
- residual activity (ROCK2 (rat); compound 10.0 µM): 69%
- residual activity (DYRK2 (human); compound 0.1 µM): 83%
- residual activity (DYRK2 (human); compound 1.0 µM): 105%
- residual activity (DYRK2 (human); compound 10.0 µM): 79%
- residual activity (MAPK12 (human); compound 0.1 µM): 89%
- residual activity (MAPK12 (human); compound 1.0 µM): 112%
- residual activity (HIPK2 (human)): 66%
- residual activity (EPHB1 (human); compound 0.1 µM): 72%
- residual activity (EPHB1 (human); compound 1.0 µM): 90%
- residual activity (EPHB1 (human); compound 10.0 µM): 86%
- residual activity (IRAK4 (human); compound 0.1 µM): 103%
- residual activity (IRAK4 (human); compound 1.0 µM): 102%
- residual activity (IRAK4 (human); compound 10.0 µM): 86%
- residual activity (TTK (human); compound 0.1 µM): 95%
- residual activity (TTK (human); compound 1.0 µM): 101%
- residual activity (TTK (human); compound 10.0 µM): 82%
- residual activity (PIM3 (human); compound 0.1 µM): 94%
- residual activity (PIM3 (human); compound 1.0 µM): 96%
- residual activity (PIM3 (human); compound 10.0 µM): 88%
- residual activity (RPS6KA1 KD1 KD2 (human); compound 0.1 µM): 94%
- residual activity (RPS6KA1 KD1 KD2 (human); compound 1.0 µM): 101%
- residual activity (RPS6KA1 KD1 KD2 (human); compound 10.0 µM): 46%
- residual activity (MYLK (human); compound 0.1 µM): 79%
- residual activity (MYLK (human); compound 1.0 µM): 90%
- residual activity (MYLK (human); compound 10.0 µM): 44%
- residual activity (EPHB4 (human); compound 0.1 µM): 83%
- residual activity (EPHB4 (human); compound 1.0 µM): 74%
- residual activity (EPHB4 (human); compound 10.0 µM): 39%
- residual activity (MAP3K7 TAB1 (human); compound 0.1 µM): 102%
- residual activity (MAP3K7 TAB1 (human); compound 1.0 µM): 106%
- residual activity (MAP3K7 TAB1 (human); compound 10.0 µM): 66%
- residual activity (PIM1 (human); compound 0.1 µM): 98%
- residual activity (PIM1 (human); compound 1.0 µM): 95%
- residual activity (PIM1 (human); compound 10.0 µM): 81%
- residual activity ([1]; compound 0.1 µM): 93%
- residual activity ([1]; compound 1.0 µM): 86%
- residual activity ([1]; compound 10.0 µM): 66%
- residual activity (DAPK1 (human); compound 0.1 µM): 95%
- residual activity (DAPK1 (human); compound 1.0 µM): 95%
- residual activity (DAPK1 (human); compound 10.0 µM): 84%
- residual activity (EPHA2 (human); compound 0.1 µM): 91%
- residual activity (EPHA2 (human); compound 1.0 µM): 98%
- residual activity (EPHA2 (human); compound 10.0 µM): 64%
- residual activity (CHEK2 (human); compound 0.1 µM): 92%
- residual activity (CHEK2 (human); compound 1.0 µM): 77%
- residual activity (CHEK2 (human); compound 10.0 µM): 35%
- residual activity (DYRK3 (human); compound 0.1 µM): 93%
- residual activity (DYRK3 (human); compound 1.0 µM): 86%
- residual activity (DYRK3 (human); compound 10.0 µM): 68%
- residual activity (MARK1 (human); compound 0.1 µM): 101%
- residual activity (MARK1 (human); compound 1.0 µM): 103%
- residual activity (MARK1 (human); compound 10.0 µM): 88%
- residual activity (MARK2 (human); compound 0.1 µM): 88%
- residual activity (MARK2 (human); compound 1.0 µM): 102%
- residual activity (MARK2 (human); compound 10.0 µM): 82%
- residual activity (PKN2 (human); compound 0.1 µM): 109%
- residual activity (PKN2 (human); compound 1.0 µM): 100%
- residual activity (PKN2 (human); compound 10.0 µM): 90%
- residual activity ([2]; compound 0.1 µM): 95%
- residual activity ([2]; compound 1.0 µM): 107%
- residual activity ([2]; compound 10.0 µM): 84%
- residual activity (STK3 (human); compound 0.1 µM): 88%
- residual activity (STK3 (human); compound 1.0 µM): 65%
- residual activity (STK3 (human); compound 10.0 µM): 41%
- residual activity (EPHB2 (human); compound 0.1 µM): 102%
- residual activity (EPHB2 (human); compound 1.0 µM): 65%
- residual activity (EPHB2 (human); compound 10.0 µM): 11%
- residual activity (TAOK1 (human); compound 0.1 µM): 113%
- residual activity (TAOK1 (human); compound 1.0 µM): 119%
- residual activity (PRKCA (human); compound 0.1 µM): 99%
- residual activity (PRKCA (human); compound 10.0 µM): 100%
- residual activity (MAPK14 (human); compound 0.1 µM): 99%
- residual activity (MAPK14 (human); compound 1.0 µM): 103%
- residual activity (MAPK14 (human); compound 10.0 µM): 101%
- residual activity (MELK (human); compound 0.1 µM): 69%
- residual activity (MELK (human); compound 10.0 µM): 56%
Compound: C=CC(=O)N1CCC[C@@H](n2nc(-c3ccc(Oc4ccccc4)cc3)c3c(N)ncnc32)C1
